Consider seven compounds from patent US20190276475A1, “CRYSTAL AND SALT OF NITROIMIDAZOLE, AND MANUFACTURING METHOD THEREOF” (priority 2016, published 2019).

Structures are written as SMILES.

For data set [1], the system named is Mycobacterium tuberculosis Erdman, ATCC 35801. The data set can be described thus: In vivo efficacy in mouse model of chronic infection. The note with it: mice, whole lung, day 32 to 59 after infection, counted day 60.
The nature of data set [2]: physchem. As to conditions: thermodynamic from solid, Solubility (mg/mL).
Method: The solubility test was carried out by using a manual stepwise dilution method under normal temperature conditions while observing the dissolution. About 2 mg of the crystal form C of the compound represented by formula (I) was added into different vials used in the liquid phase, and then an organic solvent or solvent mixture was added in small portions to observe the dissolution of the compound.
Data set [3] in a line: physchem. The note with it: 22 °C, pH 2, aqueous buffer, kinetic from dmso stock.
Method: The test compound and the control compound (10 mM DMSO mother liquor, 10 μL per well) were added to a 96-well plate containing 490 μL buffer per well. After 2 minutes of vortexing, the sample plate were incubated for 24 hours at room temperature (22±2° C.) on a shaker. 200 μL sample was then transferred to a Multi Screen filter plate (polycarbonate membrane), filtered through a millipore vacuum manifold and the filtrate was collected. The concentration of the compound in the filtrate was determined by HPLC-UV. Three UV standard solution of different concentrations and the solubility test sample were injected successively. Each sample was inserted twice, and the concentration was calculated by standard curve line and averaged.
Data set [4] is described as follows: Stability test in different solvents for the crystal form A. As to conditions: stirred at 40° C. for 2 days.
Method: The mixture was stirred at 40° C. for 2 days, and then centrifuged. The solid in all samples was collected, dried in a vacuum oven (40° C.) overnight, and was tested for crystal form by XRPD.
Data set [5] can be described thus: Solid stability test under high temperature and high humidity conditions.
From the text: The samples placed under different conditions were sampled and tested on the 5th day and 10th day, and the test results were compared with the initial test results of 0 days.
The subject of the next data set is M. bovis ATCC35737. The class given is cell-based.
The next data set concerns M. tuberculosis H37Rv. As to the kind of experiment: In vitro MIC against M. tuberculosis H37Rv, MABA. The class given is cell-based.
The next data set concerns M. tuberculosis H37R. As to the kind of experiment: In vitro MIC against M. tuberculosis H37Rv, LORA. As to conditions: Mycobacterium tuberculosis, read-out: M. tuberculosis H37R LORA (MIC) (μg/mL). Type of data set: cell-based.
In a further data set the test system is MDR1-MDCK cells. The data set can be described thus: Bidirectional permeability in MDR1-MDCK cells. The note with it: conclusion. Type of data set: in vitro ADME.
The subject of the next data set is Vero Cell. The data set can be described thus: Vero cell cytotoxicity.
[6] abbreviates: high temperature (60° C., open), 5th day.
[7] abbreviates: high temperature (60° C., open), 10th day.

Method for MDR1-MDCK cells: MDR1-MDCK cells permanently expressing human P-glycoprotein were inoculated in a 96-well Insert cell plate and cultured for 4-7 days to form convergent monolayer cells.
After the incubation, the sample solutions in the donor wells and receiver wells were immediately mixed with cold acetonitrile solution containing an internal standard. The amount of the intracellular accumulated compound was measured by lysing the cells with the cold acetonitrile solution containing an internal standard. The concentration of the test compound in all samples (including the starting dosing solution, the supernatant in the donor wells, the receiving solution, and the cell lysate) was analyzed by LC/MS/MS method. The concentration of the test compound was expressed by the ratio of the peak area of the compound to the peak area of the internal standard.
The standard conditions for the transport experiment of the compound represented by formula (I) were as follows:
Test concentration: 2 (DMSO≤1%);
Direction: bidirectional transport, including A→B and B→A these two directions;
Inoculated time: single time, 2.5 hours;
Buffer for transport: HBSS, pH 7.4;
Inoculated condition: 37° C., 5% CO2, 95% relative humidity.

On to `C[C@]1(CN2Cc3nc(-c4ccc(F)cc4)sc3C2)Cn2cc([N+](=O)[O-])nc2O1.O=S(=O)(O)c1ccccc1` [the compound represented by formula (II)], for which the results for the Log value reduced in data set [1] (10 mg/kg oral), in data set [1] (30 mg/kg oral) and in data set [1] (100 mg/kg oral) were 0.9, 1.3 and 1.7, respectively. The Number of colony in data set [1] (10 mg/kg oral) was 2.7E+05; in data set [1] (30 mg/kg oral) it was 1.0E+05; in data set [1] (100 mg/kg oral), 4.1E+04.

In data set [1] (150 mg/kg oral), `NC(=O)c1cnccn1` [pyrazinamide, reference compound] yielded a Log value reduced of 1.2 and a Number of colony of 1.2E+05.

The term solubility denotes how much of the substance goes into solution per volume. For the compound `C[C@]1(CN2Cc3nc(-c4ccc(F)cc4)sc3C2)Cn2cc([N+](=O)[O-])nc2O1`, the solubility in the data set “physchem [2]” (aqueous with cosolvent or surfactant or cyclodextrin) and in “physchem [2]” (water) was below 2000 µg/mL each time.

The term solubility (kinetic) denotes the concentration staying in solution when a stock, usually in DMSO, is diluted into the medium. In the data set “physchem [3]”, `C[C@]1(CN2Cc3nc(-c4ccc(F)cc4)sc3C2)Cn2cc([N+](=O)[O-])nc2O1.O=S(=O)(O)c1ccccc1` displayed a kinetic solubility at 24 h of 32.2 µM. Besides, the “Appearance (2 days)” value in [4] (acetonitrile-water (1:1)), in [4] (acetonitrile), in data set [4] (ethanol-water (1:1)), in [4] (ethanol), in [4] (ethyl acetate) and in [4] (isopropanol-water (1:1)) was “suspension” each time. The “Appearance (2 days)” value in data set [4] (isopropanol) was “suspension”. Also, the “Result (crystal form by XRPD)” value in data set [4] (acetonitrile-water (1:1)), in data set [4] (acetonitrile), in data set [4] (ethanol-water (1:1)), in data set [4] (ethanol), in data set [4] (ethyl acetate) and in [4] (isopropanol-water (1:1)) was “crystal form A” each time. The “Result (crystal form by XRPD)” value in data set [4] (isopropanol) was “crystal form A”. In addition, the Appearance result in data set [5] (0 day) is “grey powder”; in [5] ([…], open), 5th day) it was “grey powder”; in [5] (setting [6]), “grey powder”. Moreover, the “Total impurity (%)” value turned out to be 1.32% in data set [5] (0 day); 1.32% in data set [5] ([…], open), 5th day); 1.60% in data set [5] ([…], open), 10th day); 1.49% in data set [5] (setting [6]); 1.86% in data set [5] (setting [7]). Also, the XRPD entry was “crystal” in data set [5] (0 day); “crystal” in data set [5] ([…], open), 5th day); “crystal” in [5] ([…], open), 10th day); “crystal” in data set [5] (setting [6]); “crystal” in data set [5] (setting [7]).

Turning to `C[C@]1(CN2Cc3nc(-c4ccc(F)cc4)sc3C2)Cn2cc([N+](=O)[O-])nc2O1` [the compound represented by formula (I)], the “M. bovis ATCC35737” value in the data set on M. bovis ATCC35737 (MIC, BCG strain, Alamar Blue) is below 1 µg/mL. Moreover, the “inhibitory activity against M. bovis BCG strain (in words)” value with M. bovis ATCC35737 (conclusion) is “good inhibitory activity”. The MIC in the data set on M. tuberculosis H37Rv (Mycobacterium tuberculosis, H37RV) was below 1 µg/mL; in the data set on M. tuberculosis H37R, 1 to 32 µg/mL. The “inhibitory activity against M. tuberculosis H37Rv strain (in words)” value in the data set on M. tuberculosis H37Rv (conclusion) is recorded as “good inhibitory activity”. Besides, the “permeability compared to the reference compound OPC-67683 (in words)” value in the data set on MDR1-MDCK cells is given as “better permeability”. Further, the IC50 in the data set on Vero Cell (Chlorocebus sabaeus, Vero, read-out: Vero Cell (IC50) (μg/mL)) was above 32 µg/mL. Also, the “cytotoxicity (in words)” value in the data set with Vero Cell (conclusion) is reported as “without cytotoxicity”.

In [1] (15 mg/kg oral), `CO[C@H]1/C=C/O[C@@]2(C)Oc3c(C)c(O)c4c(O)c(c(/C=N/N5CCN(C)CC5)c(O)c4c3C2=O)NC(=O)/C(C)=C\C=C\[C@H](C)[C@H](O)[C@@H](C)[C@@H](O)[C@@H](C)[C@H](OC(C)=O)[C@@H]1C` [Rifampin, reference compound] registered a Log value reduced of 2.2 and a Number of colony of 1.2E+04.

In [1] (100 mg/kg oral), `C[C@]1(COc2ccc(N3CCC(Oc4ccc(OC(F)(F)F)cc4)CC3)cc2)Cn2cc([N+](=O)[O-])nc2O1` [OPC-67683, Delamanid, reference compound] showed a Log value reduced of 0.9 and a Number of colony of 2.3E+05.
